Columns and labels:
[1] = test system: Methylosinus trichosporium OB3b (NRRL B-11,196); assay: Methane hydroxylation and alkene epoxidation by washed cell suspensions; type: cell-based; conditions: for Propylene Oxide Formed: 3.6 mg cells; for Ability to hydroxylate methane or epoxidize C2 -C4 alkenes: methanol-grown washed cells
Procedure: (§1) The pH of the nutrient medium was adjusted to 7.0 by the addition of acid or base and 50 ml aliquots of the nutrient medium was charged into a plurality of 300 ml shake flasks. […] The isolates had been maintained on agar plates under an atmosphere of methane and air having a 1:1 v/v gas ratio which had been transferred every two weeks. The gaseous phase of the inoculated flasks was then replaced with a gas mixture comprised of methane and air having a ratio of 1:1 on a v/v basis. The inoculated flasks were sealed air tight and were incubated on a rotary shaker of orbital radius 2.5 cm at 250 rpm and at 30° C. for two days until the turbidity in the medium had developed.
(§2) The cells were harvested by centrifugation at 10,000 ×g at 4° C. for 30 minutes. The cell pellet was washed twice with a 0.15 M phosphate buffer at a pH of 7.0 (containing 0.002 M MgCl2). The washed cells were then suspended in a 0.15 M phosphate buffer at pH 7.0.
[…] The gaseous phase of the vials was removed with vacuum and then was replaced with a gas mixture of alkene and oxygen at a 1:1 v/v ratio. It was then incubated at 30° C. on a rotary shaker at 300 rpm. Samples of product (3 μl) were withdrawn periodically with a microsyringe and the products were analyzed by gas chromatography (ionization flame detector column).

[2] = test system: Methylomonas albus BG8 (NRRL B-11,200); assay: as above; type: cell-based; conditions: methane-grown washed cells, 30° C.
Procedure: as §1, §2
A 0.5 ml aliquot of each washed cell suspension (2 mg cells) was put into 10 ml vials at 4° C. which were sealed with a rubber cap. The gaseous phase of the vials was removed with vacuum and then was replaced with a gas mixture of alkene and oxygen at a 1:1 v/v ratio. It was then incubated at 30° C. on a rotary shaker at 300 rpm. Samples of product (3 μl) were withdrawn periodically with a microsyringe and the products were analyzed by gas chromatography (ionization flame detector column).

[3] = test system: Methylobacterium organophilum XX (ATCC 27,886); assay: Methane hydroxylation and propylene epoxidation by washed cell suspensions; type: cell-based; conditions: methane-grown washed cells, 30° C.
Procedure: The pH of the nutrient medium was adjusted to 7.0 by the addition of acid or base and 50 ml aliquots of the nutrient medium was charged into a plurality of 300 ml shake flasks. The shake flasks were inoculated with an inoculating loop of cells from an agar plate containing homogeneous colonies of the microorganisms on the plate (the purity of the isolates were confirmed by microscopic examination). The isolates had been maintained on agar plates under an atmosphere of methane and air having a 1:1 v/v gas ratio which had been transferred every two weeks. The gaseous phase of the inoculated flasks was then replaced with a gas mixture comprised of methane and air having a ratio of 1:1 on a v/v basis. The inoculated flasks were sealed air tight and were incubated on a rotary shaker of orbital radius 2.5 cm at 250 rpm and at 30° C. for two days until the turbidity in the medium had developed.
The cells were harvested by centrifugation at 10,000 ×g at 4° C. for 30 minutes. The cell pellet was washed twice with a 0.15 M phosphate buffer at a pH of 7.0 (containing 0.002 M MgCl2). […]
A 0.5 ml aliquot of each washed cell suspension (2 mg cells) was put into 10 ml vials at 4° C. which were sealed with a rubber cap. […] Samples of product (3 μl) were withdrawn periodically with a microsyringe and the products were analyzed by gas chromatography (ionization flame detector column).

[4] = biological target: T1, cell-free fractions of Methylococcus capsulatus (CRL M1, NRRL B-11,219) (Methylococcus capsulatus, UniProt G1UBD1+Q603F1+Q607G3); assay: Epoxidation and hydroxylation activities in cell-free fractions; type: biochemical
T1 sequence (G1UBD1 33-414): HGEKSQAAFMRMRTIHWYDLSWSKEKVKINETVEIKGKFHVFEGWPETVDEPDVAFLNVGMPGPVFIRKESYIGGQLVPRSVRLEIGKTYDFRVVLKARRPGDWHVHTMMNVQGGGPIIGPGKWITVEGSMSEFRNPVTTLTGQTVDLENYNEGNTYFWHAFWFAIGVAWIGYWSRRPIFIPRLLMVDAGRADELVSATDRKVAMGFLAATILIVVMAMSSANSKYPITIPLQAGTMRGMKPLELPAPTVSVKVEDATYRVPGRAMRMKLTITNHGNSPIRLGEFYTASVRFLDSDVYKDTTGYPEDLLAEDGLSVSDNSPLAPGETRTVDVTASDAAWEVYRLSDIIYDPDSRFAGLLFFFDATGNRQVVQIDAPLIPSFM
T1 sequence (Q607G3 1-247): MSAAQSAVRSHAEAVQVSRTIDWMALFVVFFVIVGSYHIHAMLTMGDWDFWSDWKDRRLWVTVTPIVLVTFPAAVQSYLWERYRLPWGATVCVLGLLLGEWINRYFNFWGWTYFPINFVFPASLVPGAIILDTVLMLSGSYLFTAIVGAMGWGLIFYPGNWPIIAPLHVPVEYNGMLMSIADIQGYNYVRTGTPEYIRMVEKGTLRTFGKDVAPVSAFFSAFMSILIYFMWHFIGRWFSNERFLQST
T1 sequence (Q603F1 1-260): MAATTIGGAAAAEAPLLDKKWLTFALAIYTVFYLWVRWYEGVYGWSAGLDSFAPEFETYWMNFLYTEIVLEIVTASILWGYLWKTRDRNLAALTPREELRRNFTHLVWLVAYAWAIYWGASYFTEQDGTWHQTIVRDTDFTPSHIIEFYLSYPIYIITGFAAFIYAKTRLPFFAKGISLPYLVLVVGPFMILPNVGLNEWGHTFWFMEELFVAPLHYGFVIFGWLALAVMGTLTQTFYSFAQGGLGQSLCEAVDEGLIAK
Procedure: Cells of methane-grown Methylococcus capsulatus (CRL M1, NRRL B-11,219) were obtained by the method of Example 1. […] However, when the cells were disrupted by passing twice through a French pressure cell (1000 Kg. pressure), both activities were found in the crude extract after 10,000×g. centrifugation. All of the activity in the crude extract was collected as a particulate fraction by further centrifugation of the crude extract at 40,000×g. for 90 min. at 4° C.

[5] = Propylene + Methane + O2 (25:25:50 v/v), 15 minutes
[6] = methane-grown washed cells, 30° C.
[7] = Particulate fraction (10,000 g.-40,000 g.), 1 mg. protein
[8] = Supernatant fraction of 40,000 g., 2.5 mg. protein

Q: What does the source list for C [Methane]?
A: Propylene Oxide Formed [1, 5]: 0.8 µmol; % Inhibition of propylene epoxidation [1, 5]: 50%; Conversion rate, methane hydroxylation (methane to methanol) [1, 6]: 1.5 μmole/hr/mg protein; Ability to hydroxylate methane or epoxidize C2 -C4 alkenes [1]: did not possess the ability; Conversion rate, methane hydroxylation [2]: 1.8 μmole/hr/mg protein; Conversion rate, methane hydroxylation [3]: 1.0 μmole/hr/mg protein; Oxidation Rate, Hydroxylation of Methane [4, 7]: 500 μmoles/30 min/assay; Oxidation Rate, Hydroxylation of Methane [4, 8]: 0 μmoles/30 min/assay

Q: Which results are given for C=CC [Propylene]?
A: Propylene Oxide Formed ([1]; Propylene + Helium + O2 (25:25:50 v/v), 15 minutes): 1.6 µmol; Conversion rate, propylene to propylene oxide [1, 6]: 3.6 μmole/hr/mg protein; Ability to hydroxylate methane or epoxidize C2 -C4 alkenes [1]: did not possess the ability; Conversion rate, propylene to propylene oxide [2]: 1.4 μmole/hr/mg protein; Conversion rate, propylene to propylene oxide [3]: 1.8 μmole/hr/mg protein; Oxidation Rate, Epoxidation of Propylene [4, 7]: 750 μmoles/30 min/assay; Oxidation Rate, Epoxidation of Propylene [4, 8]: 0 μmoles/30 min/assay
